Drawing on patent publication US20230117034A1, “PYRAZOLOTRIAZINES” (Bayer Aktiengesellschaft, priority 2019, published 2023), this text covers DC50 and IC50 for eleven molecules.

Assay [1] deals with T1, CYCLIN K (nuclear staining in CAL-120 cells) (Homo sapiens, UniProt O75909).
T1 construct: endogenous in cells; host or cells: CAL-120 human breast cancer cells (DSMZ ACC 459)
Put plainly: CYCLIN K nuclear protein level: immunofluorescence high content analysis (CAL-120). Format: cell-based. Particulars: 24 h, 50% reduction of nuclear CCNK staining intensity, median, read-out: CYCLIN K degradation IF, DC50-[mol/l] (median). The essentials: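 CAL-120 breast cancer cells treated in dose-response for 24 h at 37 °C, PFA-fixed and immunostained for cyclin K with Hoechst counterstain. Confocal imaging quantified nuclear intensity; DC50 is the concentration giving 50% reduction of nuclear CCNK staining, normalized to DMSO and control.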

In another assay the target is CDK12/CycK (Homo sapiens, UniProt Q9NYV4). The experiment in a line: CDK12/CycK high ATP kinase assay (TR-FRET, 2 mM ATP). Format: biochemical. Particulars: 2 mM ATP (high ATP); median; read-out: CDK12/CyclinK, 2 mM ATP (high ATP), IC50-[mol/l] (median). The essentials: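 His-tagged human CDK12/CycK (~0.75 nM) pre-incubated 15 min with compound, then 60 min at 22 °C with 2 mM ATP and 1 µM biotinylated peptide (HEPES pH 7.5, 20 mM MgCl2). EDTA stop; phospho-Ser62 antibody/Eu anti-rabbit and streptavidin-XL665 TR-FRET, 665/620 nm ratio normalised to give IC50.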
Chain of CDK12/CycK (Q9NYV4 with tags, fused parts or gaps): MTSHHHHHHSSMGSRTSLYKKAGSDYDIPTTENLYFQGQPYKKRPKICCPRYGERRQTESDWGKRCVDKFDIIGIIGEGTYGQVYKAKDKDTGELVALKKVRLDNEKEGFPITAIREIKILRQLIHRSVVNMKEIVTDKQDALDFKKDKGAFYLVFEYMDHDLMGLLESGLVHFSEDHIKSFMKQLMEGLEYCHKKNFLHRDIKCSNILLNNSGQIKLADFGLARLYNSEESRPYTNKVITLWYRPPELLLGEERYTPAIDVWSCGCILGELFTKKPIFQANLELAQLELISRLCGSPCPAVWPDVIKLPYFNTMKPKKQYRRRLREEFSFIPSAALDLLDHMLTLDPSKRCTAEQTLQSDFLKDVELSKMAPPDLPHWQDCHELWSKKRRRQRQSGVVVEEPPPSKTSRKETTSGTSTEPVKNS
Chain of CDK12/CycK (O75909 1-300 partner limits assumed): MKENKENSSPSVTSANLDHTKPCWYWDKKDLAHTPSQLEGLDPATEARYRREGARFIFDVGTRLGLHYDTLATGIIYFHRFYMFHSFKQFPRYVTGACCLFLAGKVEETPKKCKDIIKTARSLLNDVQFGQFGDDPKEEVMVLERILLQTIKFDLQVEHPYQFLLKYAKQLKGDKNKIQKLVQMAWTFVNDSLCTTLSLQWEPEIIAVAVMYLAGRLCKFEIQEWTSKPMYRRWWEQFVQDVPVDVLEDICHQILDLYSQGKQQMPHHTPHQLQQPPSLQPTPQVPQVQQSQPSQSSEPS
A general note: TR-FRET usually uses a lanthanide donor and a delayed reading to cut background.

Structures are written as SMILES. pIC50: −log10 of the molar value.

T1 sequence (O75909 whole entry): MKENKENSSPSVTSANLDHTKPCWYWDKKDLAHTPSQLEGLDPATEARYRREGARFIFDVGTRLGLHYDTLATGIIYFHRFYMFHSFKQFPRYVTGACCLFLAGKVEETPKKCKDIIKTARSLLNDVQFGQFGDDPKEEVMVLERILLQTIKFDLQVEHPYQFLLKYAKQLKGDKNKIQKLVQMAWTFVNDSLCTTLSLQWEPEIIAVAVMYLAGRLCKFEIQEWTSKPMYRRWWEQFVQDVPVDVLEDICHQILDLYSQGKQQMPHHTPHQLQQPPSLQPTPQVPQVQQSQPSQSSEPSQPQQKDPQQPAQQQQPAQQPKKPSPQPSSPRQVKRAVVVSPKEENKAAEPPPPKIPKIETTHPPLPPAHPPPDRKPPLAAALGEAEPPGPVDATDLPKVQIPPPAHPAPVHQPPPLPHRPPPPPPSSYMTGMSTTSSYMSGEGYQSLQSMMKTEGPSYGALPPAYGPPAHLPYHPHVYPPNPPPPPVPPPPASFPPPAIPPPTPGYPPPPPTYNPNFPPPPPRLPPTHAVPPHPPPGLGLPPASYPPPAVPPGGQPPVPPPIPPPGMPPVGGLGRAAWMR
T1 sequence (Q9NYV4 whole entry partner): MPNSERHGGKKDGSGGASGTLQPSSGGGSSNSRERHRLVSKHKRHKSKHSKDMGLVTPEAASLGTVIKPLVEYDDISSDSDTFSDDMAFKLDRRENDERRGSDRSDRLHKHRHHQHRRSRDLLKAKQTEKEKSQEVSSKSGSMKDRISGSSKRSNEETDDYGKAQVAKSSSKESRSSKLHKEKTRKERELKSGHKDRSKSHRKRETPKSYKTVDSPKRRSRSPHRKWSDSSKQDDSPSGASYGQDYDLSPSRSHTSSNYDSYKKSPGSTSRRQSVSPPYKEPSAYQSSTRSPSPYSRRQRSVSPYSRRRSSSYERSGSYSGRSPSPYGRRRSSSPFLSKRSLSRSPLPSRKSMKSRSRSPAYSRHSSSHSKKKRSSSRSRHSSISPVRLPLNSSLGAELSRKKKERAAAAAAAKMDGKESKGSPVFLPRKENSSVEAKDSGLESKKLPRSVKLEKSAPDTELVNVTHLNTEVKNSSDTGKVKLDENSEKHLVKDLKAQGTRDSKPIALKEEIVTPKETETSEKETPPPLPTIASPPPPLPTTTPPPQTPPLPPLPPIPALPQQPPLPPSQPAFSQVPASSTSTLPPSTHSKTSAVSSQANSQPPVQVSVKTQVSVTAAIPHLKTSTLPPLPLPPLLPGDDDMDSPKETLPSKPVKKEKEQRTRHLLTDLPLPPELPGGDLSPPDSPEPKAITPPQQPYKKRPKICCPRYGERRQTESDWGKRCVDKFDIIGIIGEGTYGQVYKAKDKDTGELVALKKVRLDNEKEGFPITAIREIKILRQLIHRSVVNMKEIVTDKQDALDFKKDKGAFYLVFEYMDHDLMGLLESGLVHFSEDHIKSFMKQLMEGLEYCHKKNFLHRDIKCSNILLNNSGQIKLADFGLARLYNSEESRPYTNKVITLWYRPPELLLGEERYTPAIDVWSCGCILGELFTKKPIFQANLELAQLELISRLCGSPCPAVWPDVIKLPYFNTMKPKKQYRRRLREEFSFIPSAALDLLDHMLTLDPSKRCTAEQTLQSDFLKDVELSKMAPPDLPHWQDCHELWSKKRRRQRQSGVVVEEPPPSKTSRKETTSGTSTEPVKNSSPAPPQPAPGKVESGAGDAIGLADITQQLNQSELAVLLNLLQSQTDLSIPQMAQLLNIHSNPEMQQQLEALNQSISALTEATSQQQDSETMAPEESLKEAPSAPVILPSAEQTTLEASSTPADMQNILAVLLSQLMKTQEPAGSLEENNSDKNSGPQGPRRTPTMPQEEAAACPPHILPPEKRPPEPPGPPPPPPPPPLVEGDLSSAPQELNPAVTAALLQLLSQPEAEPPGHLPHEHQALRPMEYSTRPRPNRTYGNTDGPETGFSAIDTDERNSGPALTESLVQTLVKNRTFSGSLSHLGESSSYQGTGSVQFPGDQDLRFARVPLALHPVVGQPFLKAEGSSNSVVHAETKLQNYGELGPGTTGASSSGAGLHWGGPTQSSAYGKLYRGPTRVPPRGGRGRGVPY

Take `Fc1cccc2[nH]c(CNc3nc(N4CCOCC4)nc4c(C(F)(F)F)cnn34)nc12` [Example 274, N-[(4-fluoro-1H-benzimidazol-2-yl)methyl]-2-(morpholin-4-yl)-8-(trifluoromethyl)pyrazolo[1,5-a][1,3,5]triazin-4-amine]: the DC50 in assay [1] was 3.21 nM. For the same molecule, at CDK12/CycK, the pIC50 was 7.40.

Take `CN1CCN(c2nc(NCc3nc4cc(F)c(F)cc4[nH]3)n3ncc(C4CC4)c3n2)CC1` [Example 311, 8-cyclopropyl-N-[(5,6-difluoro-1H-benzimidazol-2-yl)methyl]-2-(4-methylpiperazin-1-yl)pyrazolo[1,5-a][1,3,5]triazin-4-amine]: the DC50 in assay [1] turned out to be 0.892 nM. Besides, the pIC50 on CDK12/CycK was less than 4.70.

Regarding `Brc1cnn2c(NCc3nc4ccccc4[nH]3)nc(N3CCC4(CCN4)CC3)nc12` [Example 291, N-[(1H-benzimidazol-2-yl)methyl]-8-bromo-2-(1,7-diazaspiro[3.5]nonan-7-yl)pyrazolo[1,5-a][1,3,5]triazin-4-amine], the DC50 in assay [1] turned out to be 10 nM. Also, the pIC50 at CDK12/CycK is 4.97.

Regarding `CN1CCN(c2nc(NCc3nc4ccccc4[nH]3)n3ncc(C4CC4)c3n2)CC1` [Example 246, N-[(1H-benzimidazol-2-yl)methyl]-8-cyclopropyl-2-(4-methylpiperazin-1-yl)pyrazolo[1,5-a][1,3,5]triazin-4-amine], the DC50 in assay [1] came to 1.02 nM. Besides, the pIC50 on CDK12/CycK was less than 4.89.

Consider `Brc1cnn2c(NCc3nc4ccccc4[nH]3)nc(N3CC4CCNC4C3)nc12` (stereo not shown) [Example 271, 2-(2,3,3a,4,6,6a-hexahydro-1H-pyrrolo[2,3-c]pyrrol-5-yl)-N-(1H-benzimidazol-2-ylmethyl)-8-bromo-pyrazolo[1,5-a][1,3,5]triazin-4-amine], for which the DC50 in assay [1] amounted to 1.21 nM. Further, on CDK12/CycK, the pIC50 is less than 4.70.

`Fc1ccc2[nH]c(CNc3nc(N4CCOCC4)nc4c(CC(F)(F)F)cnn34)nc2c1` [Example 308, N-[(5-fluoro-1H-benzimidazol-2-yl)methyl]-2-(morpholin-4-yl)-8-(2,2,2-trifluoroethyl)pyrazolo[1,5-a][1,3,5]triazin-4-amine]: the DC50 in assay [1] came to 1.02 nM. Also, the pIC50 at CDK12/CycK is 5.19.

As to `Fc1ccc2[nH]c(CNc3nc(N4CC5CCC(C4)N5)nc4c(C(F)(F)F)cnn34)nc2c1F` [Example 310, 2-(3,8-diazabicyclo[3.2.1]octan-3-yl)-N-[(4,5-difluoro-1H-benzimidazol-2-yl)methyl]-8-(trifluoromethyl)pyrazolo[1,5-a][1,3,5]triazin-4-amine], the DC50 in assay [1] was determined as 0.29 nM. The pIC50 at CDK12/CycK was 5.89.

`Fc1cccc2[nH]c(CNc3nc(N4C[C@H]5CC[C@@H](C4)N5)nc4c(C5CC5)cnn34)nc12` [Example 296, 8-cyclopropyl-2-[(1R,5S)-3,8-diazabicyclo[3.2.1]octan-3-yl]-N-[(4-fluoro-1H-benzimidazol-2-yl)methyl]pyrazolo[1,5-a][1,3,5]triazin-4-amine]: in assay [1], the DC50 came to 1.15 nM. Further, the pIC50 at CDK12/CycK was 5.61.

Regarding `Fc1ccc2[nH]c(CNc3nc(N4CCOCC4)nc4c(C(F)(F)F)cnn34)nc2c1` [Example 273, N-[(5-fluoro-1H-benzimidazol-2-yl)methyl]-2-(morpholin-4-yl)-8-(trifluoromethyl)pyrazolo[1,5-a][1,3,5]triazin-4-amine], the DC50 in assay [1] turned out to be 0.66 nM. The pIC50 on CDK12/CycK is 6.01.

Turning to `CN(CC(C)(C)O)c1nc(NCc2nc3c(F)c(F)ccc3[nH]2)n2ncc(C3CC3)c2n1` [Example 292, 1-[(8-cyclopropyl-4-{[(4,5-difluoro-1H-benzimidazol-2-yl)methyl]amino}pyrazolo[1,5-a][1,3,5]triazin-2-yl)(methyl)amino]-2-methylpropan-2-ol], the DC50 in assay [1] is 0.643 nM. Moreover, the pIC50 at CDK12/CycK was 6.18.

Regarding `Fc1cc2nc(CNc3nc(N4CCOCC4)nc4c(C5CC5)cnn34)[nH]c2cc1F` [Example 318, 8-cyclopropyl-N-[(5,6-difluoro-1H-benzimidazol-2-yl)methyl]-2-(morpholin-4-yl)pyrazolo[1,5-a][1,3,5]triazin-4-amine], the DC50 in assay [1] worked out at 0.516 nM. Also, the pIC50 at CDK12/CycK was 5.87.
